Experimental data taken from BindingDB's records for patent US20230416245 (Biointervene, 2023).

Target: T1, Adenosine receptor A3 (Homo sapiens, UniProt P0DMS8)
T1 sequence (P0DMS8 whole entry): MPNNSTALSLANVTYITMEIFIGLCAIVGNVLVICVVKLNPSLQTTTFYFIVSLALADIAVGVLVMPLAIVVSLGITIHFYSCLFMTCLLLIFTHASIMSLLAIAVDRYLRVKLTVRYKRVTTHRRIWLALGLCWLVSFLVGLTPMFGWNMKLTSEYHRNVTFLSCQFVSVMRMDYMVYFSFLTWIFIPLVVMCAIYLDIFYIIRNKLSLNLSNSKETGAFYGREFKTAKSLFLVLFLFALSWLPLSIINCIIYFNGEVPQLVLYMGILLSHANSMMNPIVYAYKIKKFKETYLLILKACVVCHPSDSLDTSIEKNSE
Assay: Adenosine Receptor Binding Assay
Description: Radioligand-binding assays were performed using the adenosine A3 receptor agonist [125I]-AB-MECA and the A1 receptor agonist [3H]CCPA. Binding assays were conducted in a total volume of 100 μL containing a 50 mM Tris, pH 7.4 buffer with or without 10 mM MgCl2, 20 μg membranes and either 0.15 nM [125I]-AB-MECA (for the A3 receptor) or 1 nM [3H]CCPA (for the A1 receptor). Assays were conducted at room temperature for 60 min (A1 receptor) or 120 min (A3 receptor) and terminated by the addition of 2 ml of ice-cold wash buffer (50 mM Tris, pH 7.4 with or without 10 mM MgCl2) and rapid filtration over 0.03% polyethylenimine-treated Whatman GF/C filters using a Brandel cell harvester (Semat International Ltd., St Albans, UK). Filters were then washed three times with 2 ml of ice-cold buffer. The filter-bound radioactivity were counted using a Compugamma counter (LKB Wallac, Turku, Finland). Competition experiments were performed to investigate the ability of reference compounds and embodiments of the invention to inhibit [125I]-AB-MECA binding. Non-specific binding were determined using the respective compound at its highest concentration

Ki: 0.23 nM
Structure (SMILES): CCNc1cc(Cl)nc2c1ncn2[C@H]1[C@H](O)[C@H](O)[C@]2(C(=O)NC)C[C@H]12 [US20230416245, Compound 59]
